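Exposure lasted 48 hours, with cells grown in 96-well plates and compounds tested at five concentrations. GI50 is the concentration that inhibits growth by half. The concentration for full growth arrest is given as TGI.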
Columns and labels:
Assay in all cases: inhibition of tumour cell growth, NCI panel, 48 h
ACHN renal = tested on: ACHN renal
NCI-H226 lung = tested on: NCI-H226 lung
MALME-3M melanoma = tested on: MALME-3M melanoma
HCC-2998 colon = tested on: HCC-2998 colon
OVCAR-8 ovarian = tested on: OVCAR-8 ovarian
HCT-15 colon = tested on: HCT-15 colon
BT-549 breast = tested on: BT-549 breast
HT29 colon = tested on: HT29 colon
NCI-H23 lung = tested on: NCI-H23 lung
NCI-H522 lung = tested on: NCI-H522 lung
SK-MEL-5 melanoma = tested on: SK-MEL-5 melanoma
HOP-62 NSCLC = tested on: HOP-62 NSCLC
OVCAR-3 ovarian = tested on: OVCAR-3 ovarian
SK-MEL-28 melanoma = tested on: SK-MEL-28 melanoma
KM12 colon = tested on: KM12 colon
MDA-MB-231 breast = tested on: MDA-MB-231 breast
EKVX NSCLC = tested on: EKVX NSCLC
NCI-H460 lung = tested on: NCI-H460 lung
IGROV1 ovarian = tested on: IGROV1 ovarian
UACC-62 melanoma = tested on: UACC-62 melanoma
MOLT-4 leukemia = tested on: MOLT-4 leukemia
SF-268 CNS = tested on: SF-268 CNS
T-47D breast = tested on: T-47D breast
K-562 leukemia = tested on: K-562 leukemia
SNB-75 CNS = tested on: SNB-75 CNS
COLO 205 colon = tested on: COLO 205 colon
UO-31 renal = tested on: UO-31 renal
OVCAR-5 ovarian = tested on: OVCAR-5 ovarian
786-0 renal = tested on: 786-0 renal
CAKI-1 renal = tested on: CAKI-1 renal
CCRF-CEM leukemia = tested on: CCRF-CEM leukemia
HCT-116 colon = tested on: HCT-116 colon
RXF 393 renal = tested on: RXF 393 renal
SW-620 colon = tested on: SW-620 colon
HS 578T breast = tested on: HS 578T breast
A549 NSCLC = tested on: A549 NSCLC
DU-145 prostate = tested on: DU-145 prostate
NCI/ADR-RES ovarian = tested on: NCI/ADR-RES ovarian
SF-539 CNS = tested on: SF-539 CNS
RPMI-8226 leukemia = tested on: RPMI-8226 leukemia
U251 CNS = tested on: U251 CNS
HL-60(TB) leukemia = tested on: HL-60(TB) leukemia
SNB-19 CNS = tested on: SNB-19 CNS
TK-10 renal = tested on: TK-10 renal
A498 renal = tested on: A498 renal
M14 melanoma = tested on: M14 melanoma
SN12C renal = tested on: SN12C renal
LOX IMVI melanoma = tested on: LOX IMVI melanoma
MDA-MB-435 = tested on: MDA-MB-435
SK-MEL-2 melanoma = tested on: SK-MEL-2 melanoma
SF-295 CNS = tested on: SF-295 CNS
SK-OV-3 ovarian = tested on: SK-OV-3 ovarian
PC-3 prostate = tested on: PC-3 prostate
OVCAR-4 ovarian = tested on: OVCAR-4 ovarian
MCF7 breast = tested on: MCF7 breast
HOP-92 NSCLC = tested on: HOP-92 NSCLC
UACC-257 melanoma = tested on: UACC-257 melanoma
SR leukemia = tested on: SR leukemia

## CC(C)(C)c1ccc(O)c(C(O)c2cccnc2)c1 (centres undefined)
ACHN renal
  TGI: > 100 µM
NCI-H226 lung
  TGI: > 100 µM
MALME-3M melanoma
  TGI: > 100 µM
HCC-2998 colon
  TGI: > 100 µM
OVCAR-8 ovarian
  TGI: > 100 µM
HCT-15 colon
  TGI: > 100 µM
BT-549 breast
  TGI: > 100 µM
HT29 colon
  TGI: > 100 µM
NCI-H23 lung
  TGI: > 100 µM
NCI-H522 lung
  TGI: > 100 µM
SK-MEL-5 melanoma
  TGI: > 100 µM
HOP-62 NSCLC
  TGI: > 100 µM
OVCAR-3 ovarian
  TGI: > 100 µM
SK-MEL-28 melanoma
  TGI: > 100 µM
KM12 colon
  TGI: > 100 µM
MDA-MB-231 breast
  TGI: > 100 µM
EKVX NSCLC
  TGI: > 100 µM
NCI-H460 lung
  TGI: > 100 µM
IGROV1 ovarian
  TGI: > 100 µM
UACC-62 melanoma
  TGI: > 100 µM
MOLT-4 leukemia
  TGI: > 100 µM
SF-268 CNS
  TGI: > 100 µM
T-47D breast
  TGI: 53.7 µM
K-562 leukemia
  TGI: > 100 µM
SNB-75 CNS
  TGI: > 100 µM
COLO 205 colon
  TGI: > 100 µM
UO-31 renal
  TGI: > 100 µM
OVCAR-5 ovarian
  TGI: > 100 µM
786-0 renal
  TGI: > 100 µM
CAKI-1 renal
  TGI: > 100 µM
CCRF-CEM leukemia
  TGI: > 100 µM
HCT-116 colon
  TGI: > 100 µM
RXF 393 renal
  TGI: > 100 µM
SW-620 colon
  TGI: > 100 µM
HS 578T breast
  TGI: > 100 µM
A549 NSCLC
  TGI: > 100 µM
DU-145 prostate
  TGI: > 100 µM
NCI/ADR-RES ovarian
  TGI: > 100 µM
SF-539 CNS
  TGI: > 100 µM

## CC(C)C[C@H](NC(=O)[C@H](CCc1ccccc1)NC(=O)c1ccc2ccccc2n1)B(O)O
ACHN renal
  TGI: 0.176 µM
NCI-H226 lung
  TGI: 0.367 µM
HCC-2998 colon
  TGI: 0.149 µM
OVCAR-8 ovarian
  TGI: 0.86 µM
RPMI-8226 leukemia
  TGI: > 39.1 µM
U251 CNS
  TGI: 6.11 µM
HCT-15 colon
  TGI: 0.52 µM
HL-60(TB) leukemia
  TGI: 0.0955 µM
BT-549 breast
  TGI: 0.152 µM
SNB-19 CNS
  TGI: 13.1 µM
HT29 colon
  TGI: 0.144 µM
NCI-H23 lung
  TGI: 0.338 µM
NCI-H522 lung
  TGI: < 0.0405 µM
TK-10 renal
  TGI: 0.407 µM
A498 renal
  TGI: 4.38 µM
M14 melanoma
  TGI: 0.0289 µM
SK-MEL-5 melanoma
  TGI: 0.647 µM
HOP-62 NSCLC
  TGI: 0.658 µM
OVCAR-3 ovarian
  TGI: 0.0818 µM
SN12C renal
  TGI: 0.486 µM
SK-MEL-28 melanoma
  TGI: 0.055 µM
LOX IMVI melanoma
  TGI: 0.247 µM
MDA-MB-435
  TGI: < 0.0123 µM
KM12 colon
  TGI: 0.295 µM
SK-MEL-2 melanoma
  TGI: 0.0407 µM
MDA-MB-231 breast
  TGI: 0.305 µM
SF-295 CNS
  TGI: 0.305 µM
EKVX NSCLC
  TGI: 3.27 µM
NCI-H460 lung
  TGI: 2.47 µM
IGROV1 ovarian
  TGI: 0.972 µM
SK-OV-3 ovarian
  TGI: 10.2 µM
PC-3 prostate
  TGI: 1.19 µM
UACC-62 melanoma
  TGI: 1.2 µM
MOLT-4 leukemia
  TGI: 4.76 µM
SF-268 CNS
  TGI: 0.397 µM
OVCAR-4 ovarian
  TGI: 3.09 µM
K-562 leukemia
  TGI: > 100 µM
SNB-75 CNS
  TGI: 0.175 µM
COLO 205 colon
  TGI: 5.18 µM
UO-31 renal
  TGI: 0.588 µM
OVCAR-5 ovarian
  TGI: 0.617 µM
786-0 renal
  TGI: 0.706 µM
CAKI-1 renal
  TGI: 4.73 µM
HCT-116 colon
  TGI: 0.0595 µM
MCF7 breast
  TGI: 4.2 µM
RXF 393 renal
  TGI: < 0.017 µM
HOP-92 NSCLC
  TGI: 0.28 µM
SW-620 colon
  TGI: < 0.0338 µM
HS 578T breast
  TGI: 0.442 µM
A549 NSCLC
  TGI: 13.4 µM
UACC-257 melanoma
  TGI: 0.0676 µM
DU-145 prostate
  TGI: 3.49 µM
NCI/ADR-RES ovarian
  TGI: 4.66 µM
SF-539 CNS
  TGI: < 0.0225 µM

## COc1cccc2c(Nc3ccc(C(=O)NCCN(C)C)cc3)cc(-c3ccccc3)nc12
ACHN renal
  GI50: 17.6 µM
  TGI: 37.9 µM
NCI-H226 lung
  GI50: 19.3 µM
  TGI: 40 µM
MALME-3M melanoma
  GI50: 20 µM
  TGI: 40.2 µM
HCC-2998 colon
  GI50: 11.5 µM
  TGI: 24.9 µM
OVCAR-8 ovarian
  GI50: 17.3 µM
  TGI: 42.7 µM
RPMI-8226 leukemia
  GI50: 6.11 µM
  TGI: 24.4 µM
U251 CNS
  GI50: 18.8 µM
  TGI: 38.3 µM
HCT-15 colon
  GI50: 16.4 µM
  TGI: 38.4 µM
HL-60(TB) leukemia
  GI50: 14.9 µM
  TGI: 39.9 µM
BT-549 breast
  GI50: 20.3 µM
  TGI: 44.8 µM
HT29 colon
  GI50: 28.5 µM
  TGI: > 100 µM
NCI-H23 lung
  GI50: 20.3 µM
  TGI: 45.6 µM
NCI-H522 lung
  GI50: 16.6 µM
  TGI: 32.4 µM
TK-10 renal
  GI50: 23.8 µM
  TGI: 57.2 µM
A498 renal
  GI50: 17.2 µM
  TGI: 32 µM
M14 melanoma
  GI50: 16.3 µM
  TGI: 30.5 µM
SK-MEL-5 melanoma
  GI50: 17.3 µM
  TGI: 32.1 µM
HOP-62 NSCLC
  GI50: 13.8 µM
  TGI: 29.3 µM
OVCAR-3 ovarian
  GI50: 25.6 µM
  TGI: 54.1 µM
SN12C renal
  GI50: 16.1 µM
  TGI: 36.4 µM
SK-MEL-28 melanoma
  GI50: 37.1 µM
  TGI: > 100 µM
LOX IMVI melanoma
  GI50: 18.1 µM
  TGI: 33.9 µM
MDA-MB-435
  GI50: 22 µM
  TGI: 39.1 µM
KM12 colon
  GI50: 19.7 µM
  TGI: 43.2 µM
SK-MEL-2 melanoma
  GI50: 17.9 µM
  TGI: 36.8 µM
MDA-MB-231 breast
  GI50: 4.15 µM
  TGI: 19.4 µM
SF-295 CNS
  GI50: 22.9 µM
  TGI: 41.4 µM
EKVX NSCLC
  GI50: 27 µM
  TGI: 81.4 µM
IGROV1 ovarian
  GI50: 10.8 µM
  TGI: 25.6 µM
SK-OV-3 ovarian
  GI50: 29.4 µM
  TGI: 71.2 µM
PC-3 prostate
  GI50: 13.3 µM
  TGI: 40.5 µM
UACC-62 melanoma
  GI50: 18.2 µM
  TGI: 32.5 µM
SR leukemia
  GI50: 1.86 µM
  TGI: 7.52 µM
T-47D breast
  GI50: 19.7 µM
  TGI: 50.2 µM
OVCAR-4 ovarian
  GI50: 33 µM
  TGI: > 100 µM
K-562 leukemia
  GI50: 10.8 µM
  TGI: 31.5 µM
SNB-75 CNS
  GI50: 29.5 µM
  TGI: 66 µM
COLO 205 colon
  GI50: 11.2 µM
  TGI: 26.5 µM
UO-31 renal
  GI50: 13.9 µM
  TGI: 32.3 µM
OVCAR-5 ovarian
  GI50: 23.7 µM
  TGI: 50.6 µM
786-0 renal
  GI50: 2.26 µM
  TGI: 14.2 µM
CAKI-1 renal
  GI50: 27.8 µM
  TGI: 55.3 µM
CCRF-CEM leukemia
  GI50: 8.86 µM
  TGI: 33.2 µM
HCT-116 colon
  GI50: 3.88 µM
  TGI: 18.6 µM
RXF 393 renal
  GI50: 5.12 µM
  TGI: 19.7 µM
HOP-92 NSCLC
  GI50: 0.832 µM
  TGI: 8.86 µM
SW-620 colon
  GI50: 14 µM
  TGI: 33.4 µM
HS 578T breast
  GI50: 21.4 µM
  TGI: 53.6 µM
A549 NSCLC
  GI50: 16 µM
  TGI: 33.1 µM
UACC-257 melanoma
  GI50: 15.7 µM
  TGI: 29.9 µM
DU-145 prostate
  GI50: 16.4 µM
  TGI: 33 µM
NCI/ADR-RES ovarian
  GI50: 18.3 µM
  TGI: 42.9 µM
SF-539 CNS
  GI50: 19.1 µM
  TGI: 37.1 µM
